# From US20250017881A1, “Fatty acids for ketosis control” (N.V. Nutricia, priority 2022, published 2025)
# “Also recorded” adds a separate entry of the source.
# How the values were obtained:
# Type in all cases: cell-based
# [1] = tested on: mouse liver cells (Hepa1-6 cell line); test: Ketone production (beta-hydroxybutyrate in medium) by mouse liver cells; conditions: for beta-hydroxybutyrate production, fatty acid provided alone: provided alone to liver cells at 1 μM, 5 μM and 10 μM, 6 h ketogenic phase; for beta-hydroxybutyrate production when combined with 100 μM OA, versus 100 μM OA alone: test fatty acid 1 μM to 10 μM (1, 5, 10 μM) + 100 μM oleic acid; for production of ketones from 100 μM fatty acid blend (K-one): test fatty acid within 1 μM to 10 μM + 100 μM fatty acid blend; for ketone production in the absence of a ketogenic fat blend: 5 μM each, alone or in combination
# Experimental: An assay to measure ketone production in mouse liver cells (Hepa1-6 cell line) was used wherein cells were first grown to a monolayer (growth phase), then exposed to starvation to deplete cellular lipid stores and subsequently brought into a ketogenic phase wherein cells were cultured in presence of oleic acid or a ketogenic diet fat blend with or without the presence of one of C2, C4, C6 fatty acids, citrate and nicotinamide riboside (herein also referred to as C2, C4, C6, citrate and NR). The ketone body production was subsequently determined by measurement of beta-hydroxybutyrate in the cell culture medium according to the details set out below:
# Starvation phase: At the end of the growth phase the cells formed a monolayer. The medium was exchanged for DMEM containing 1 mM glucose and antibiotics (1% penicillin & streptomycin) but no FBS. The medium was further supplemented with L-carnitine (a required co-factor for the uptake of fatty acids into the mitochondria, where fatty acids are turned into ketones). The cells were incubated in this medium for 24 hours. During this time, the cells were vastly deprived of glucose, lipids and hormones contained in FBS, forcing them to consume and empty their lipid stores. […] Moreover, the starvation phase is thought to induce specific metabolic changes that maximize the production of ketones.
# Ketogenic phase: At the end of the starvation phase, the medium was exchanged for Krebs-Henseleit buffer (KHB) supplemented with the test nutrients (single fatty acids and fatty acid blend shown in table 1) and L-carnitine.
# The fatty acid blend is contained in a similar fatty acid composition to the one used in a ketogenic diet (K-one). The content of every fatty acid in the blend is given as the molar ratio to Oleic acid (OA), whose molar content is set to 1. Dilutions of this blend were used to determine the dose response curve in FIGS. 1B and 1D. C2 and C4 are not included in the blend.
# KHB is composed of salts and bicarbonate as a chemical buffer to maintain the osmotic pressure and acidity (pH) at physiological levels. Medium and long chain fatty acids are coupled to bovine serum albumin prior to the assay to make them soluble in KHB and allow their efficient uptake by the cells. The coupling is physiological since in humans, medium and long chain fatty acids are also normally coupled to albumin for transport in the blood circulation. Short chain fatty acids (C2, C4) were not coupled to albumin in the assay since they are water-soluble and circulate freely in humans. The cells were incubated for 6 hours at 37° C. During this time, they produce ketones from the test nutrients with little to no interference from other nutrients and secrete β-hydroxybutyrate (β-Hb) into the medium.
# β-Hb measurements: At the end of the ketogenic phase, the whole medium was collected and dried by vacuum centrifugation for 20 hours at 21° C. The dry pellet was resuspended in a small volume of assay buffer to yield a 10-20-fold higher β-Hb concentration than in the medium. The samples were deproteinized using spin columns to measure the free unbound fraction of R-Hb. […] The Fluorescence was measured on a fluorescence microplate reader and is directly proportional to the β-Hb concentration in the sample within a range of 0.1 μM to 50 μM β-Hb.
# [2] = tested on: mouse liver cells (Hepa1-6 cell line); test: Propionate viability assay (ATP content, bioluminescence)
# Experimental: Starvation phase: At the end of the growth phase the cells formed a monolayer. The medium was exchanged for DMEM containing 1 mM glucose and antibiotics (1% penicillin & streptomycin) but no FBS. The medium was further supplemented with L-carnitine (a required co-factor for the uptake of fatty acids into the mitochondria, where fatty acids are turned into ketones). […] The cells were incubated in this medium for 24 hours.
# [3] = tested on: NAD+ depleted mouse liver cells (Hepa1-6 cells); test: NAD+ replenishment of NAD+ depleted liver cells by NAD+ precursors
# Experimental: An assay was developed to measure NAD+ replenishment of NAD+ depleted mouse liver cells (Hepa1-6 cells) by NAD+ precursors under ketogenic diet-like conditions. In this assay, mouse liver cells were starved of glucose and depleted of NAD+ through incubation in a very low glucose (1 mM) medium free of vitamin B3, Trp and FBS and supplemented with 10 nM of an NAD+ depleting drug called FK866. Thereafter, the cells were fed with NR or NAM or Niacin (provided as a combination of NAM and nicotinic acid in a 1:1 molar ratio) or Trp to replenish the cells with NAD+. At the end of the supplementation phase, the cells were scraped and extracted using the NAD+ extraction buffer of the EnzyChrom™ NAD/NADH Assay Kit from BioAssay Systems. The NAD+ content of the cells was determined with the same kit following the manufacturer's manual. The NAD+ measurement is based on a […] reaction, in which NAD+ is reduced to NADH, which in turn reduces a formazan (MTT) reagent. The intensity of the reduced product color, measured at 565 nm, is proportional to the NAD+ concentration in the sample. This assay is highly specific for NAD+ and has minimal interference (<1%) by NADP+ or NADPH.
# [4] = tested on: NAD+ depleted mouse liver cells; test: Ketone production of NAD+ depleted liver cells replenished with NR; conditions: NR 10 μM
# Experimental: To measure the impact of replenishing NAD+ in liver cells with NR on ketone production, mouse liver cells were nutrient-deprived in medium containing low (1 mM) glucose and L-carnitine, but no fetal bovine serum, and no NAD+ precursors in the form of vitamin B3 (Niacin, NA, NAM) or Trp, Concomitantly the cells were treated with the NAD+ depleting drug FK866. These conditions created ketogenic diet like nutrient conditions and depleted the cells of NAD+. After 18 hours of incubation, FK866 was removed from the medium and a concentration range of NR was added to replenish NAD+ in liver cells. After 24 hours, the cells were switched to Krebs-Henseleit buffer (KHB) containing L-carnitine and a concentration range (1 μM to 100 μM) of oleic acid, a long chain fatty acid, for 6 hours to induce and measure the production and secretion of b-hydroxybutyrate (PHB) into the medium.
smiles,measurement,setting,value
"CC(=O)O [C2, acetic acid]","beta-hydroxybutyrate production when combined with 100 μM fatty acid blend, versus blend alone",[1]; 1 μM or 10 μM C2 + 100 μM fatty acid blend (K-one),slightly greater production of PHb
same,"beta-hydroxybutyrate production, fatty acid provided alone",[1],does not yield any ketones
same,"beta-hydroxybutyrate production, fatty acid provided alone",[1]; listed as 02,virtually no bHB
same,"beta-hydroxybutyrate production when combined with 100 μM OA, versus 100 μM OA alone",[1],more PHb than 100 μM OA alone; also recorded: enhances the production of ketones
same,production of ketones from 100 μM fatty acid blend (K-one),[1],enhances the production of ketones
"CCC(=O)O [C3, propionic acid]","cytotoxicity, long-term assessment","[2]; 300 uM to 10 mM C3, 24-hour starvation plus 6-hour ketogenic phase",evident for the entire dose-range
same,"cytotoxicity, short-term exposure","[2]; 10 mM C3, 6-hours of exposure (ketogenic phase)",Cytotoxicity was already noted
same,cytotoxicity (ATP content) over the concentration range,[2]; C3 to 10 mM as printed,dose-dependent increase in cytotoxicity
same,reduction of beta-hydroxybutyrate yield compared to 100 μM fatty acid blend alone,"[1]; 1 μM, 5 μM and 10 μM C3 + 100 μM fatty acid blend",more than 60%
same,"beta-hydroxybutyrate production, fatty acid provided alone",[1],yielded no PHb
same,"beta-hydroxybutyrate production when combined with 100 μM OA, versus 100 μM OA alone",[1],less PHb than 100 μM OA alone; also recorded: inhibits the top-level production of ketones
same,production of ketones from 100 μM fatty acid blend (K-one),[1],dose-dependent manner; also recorded: inhibits the top-level production of ketones
"CCCC(=O)O [C4, butyric acid]",ketone production in the absence of a ketogenic fat blend,[1]; no fat blend,hardly any ketones
same,"beta-hydroxybutyrate production when combined with 100 μM fatty acid blend, versus blend alone",[1]; 10 μM C4 + 100 μM fatty acid blend (K-one),more βHb than providing the 100 μM fatty acid blend alone
same,ketone production from a concentration range of fatty acid blend,"[1]; fixed 10 μM C4 + 1 μM to 100 μM fatty acid blend (K-one), versus blend without C4",increasingly enhanced the production of ketones
same,"beta-hydroxybutyrate production, fatty acid provided alone",[1],hardly yielded any PHb
same,"beta-hydroxybutyrate production when combined with 100 μM OA, versus 100 μM OA alone",[1],more PHb than providing 100 μM OA alone; also recorded: potentiates the production of ketones
same,production of ketones from 100 μM fatty acid blend (K-one),[1],potentiates the production of ketones
"CCCCCC(=O)O [C6, caproic acid]",ketone production in the absence of a ketogenic fat blend,[1]; no fat blend,hardly any ketones
same,concentration above which the fatty acid starts to be turned as a substrate into beta-hydroxybutyrate,"[1]; dose-response curve of the fatty acid alone, 1 μM to 100 μM",above 10 μM
same,"beta-hydroxybutyrate production when combined with 100 μM OA, versus 100 μM OA alone",[1],potentiates the production of ketones
same,production of ketones from 100 μM fatty acid blend (K-one),[1],potentiates the production of ketones
"O=C(/C=C/c1cccnc1)NCCCCC1CCN(C(=O)c2ccccc2)CC1 [FK866, reference compound]",depletion of NAD+ relative to baseline NAD+ content of untreated liver cells,"[3]; 10 nM FK866, very low glucose medium",~70%
"NC(=O)c1ccc[n+]([C@@H]2O[C@H](CO)[C@@H](O)[C@H]2O)c1 [NR, nicotinamide riboside]",increase of NAD+ content versus equimolar amounts of NAM or Niacin,[3]; 1 mM,significantly greater extent
same,increase of NAD+ content versus equimolar amounts of Niacin,[3]; lower concentrations below 150 μM,greater extent
same,NAD+ content of NAD+ depleted liver cells after provision,"[3]; within 24 hours of treatment, concentration range",dose-dependently replenishes NAD+ content to and above this baseline
same,top-level production of ketones,"[4]; 150 μM and 1000 μM for 24 h, then oleic acid 1 μM to 100 μM for 6 h",increased
same,NAD+ content,"[4]; 150 μM and 1000 μM, ketogenic diet like nutrient conditions",increased
"CCCCCCCC/C=C\CCCCCCCC(=O)O [OA, oleic acid, reference compound]",concentration at which top-level (maximized) ketone production is achieved,"[1]; ketogenic substrate alone, dose-response curve",100 µM
O=C(O)CC(O)(CC(=O)O)C(=O)O [citrate],increase of ketone production from the fat blend,[1]; 200 μM to 1000 μM citrate + 100 μM fatty acid blend (K-one),10-20%
same,"ketone production, citrate provided alone","[1]; citrate alone, no fat blend",yielded no ketones
